Source: article PMC3818563, “Effect of Iboga Alkaloids on µ-Opioid Receptor-Coupled G Protein Activation” (PLoS ONE, 2013)
“And” between values parts separate entries of the source, which are not always exact repeats. Equal entries are not always repeated. “Also recorded” adds a separate entry of the source. Structures can show the parent of a compound that is named as a salt. Where two headings read alike, the source gives them in different places.

How the values were obtained:
mouse mMOR = biological target: T1, mouse mMOR (Mus musculus, UniProt P42866); assay: [35S]GTPγS binding in mMOR-expressing HEK 293 cells (Reith lab); assay type: biochemical
T1 construct: expressed in transfected cells
T1 sequence (P42866 whole entry): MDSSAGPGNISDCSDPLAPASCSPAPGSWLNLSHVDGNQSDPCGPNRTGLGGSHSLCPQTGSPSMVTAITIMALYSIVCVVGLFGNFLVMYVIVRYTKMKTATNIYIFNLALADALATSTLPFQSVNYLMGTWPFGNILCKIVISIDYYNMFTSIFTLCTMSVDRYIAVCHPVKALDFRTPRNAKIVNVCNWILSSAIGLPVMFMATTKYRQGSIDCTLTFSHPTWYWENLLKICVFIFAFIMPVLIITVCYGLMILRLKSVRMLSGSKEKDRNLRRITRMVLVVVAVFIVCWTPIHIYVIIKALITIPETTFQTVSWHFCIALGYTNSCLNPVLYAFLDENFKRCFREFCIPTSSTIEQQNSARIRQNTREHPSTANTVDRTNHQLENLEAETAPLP

μ-opioid receptor (MOR) [1] = conditions: cited from earlier work
NMDA receptor = conditions: cited from earlier work
[2] = Solubility of stocks in water; conditions: thermodynamic from solid
μ-opioid receptor (MOR) [3] = biological target: T2, μ-opioid receptor (MOR) (Rattus norvegicus, UniProt P33535); assay: [35S]GTPγS binding in Sprague-Dawley rat thalamic membranes (Reith lab); assay type: biochemical; parameters: from tissue; host or cells: rat thalamus membranes (Sprague-Dawley; also Fischer F344 in the Janowsky lab); conditions: for Ki: Antagonist activity Ke (functional Ki), Sprague-Dawley rat thalamic membranes (Reith lab), versus DAMGO (1 µM) as agonist
T2 sequence (P33535 whole entry): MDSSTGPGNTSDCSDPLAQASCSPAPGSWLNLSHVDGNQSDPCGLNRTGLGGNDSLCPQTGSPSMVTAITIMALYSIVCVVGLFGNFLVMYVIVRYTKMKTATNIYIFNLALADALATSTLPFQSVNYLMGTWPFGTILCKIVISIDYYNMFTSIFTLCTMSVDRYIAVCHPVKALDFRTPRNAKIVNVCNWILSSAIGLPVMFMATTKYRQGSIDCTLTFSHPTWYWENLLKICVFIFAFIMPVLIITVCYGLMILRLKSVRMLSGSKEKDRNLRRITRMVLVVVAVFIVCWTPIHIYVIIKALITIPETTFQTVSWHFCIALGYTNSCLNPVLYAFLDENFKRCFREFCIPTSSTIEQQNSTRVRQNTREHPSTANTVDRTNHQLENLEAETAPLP

μ-opioid receptor (MOR) [4] = biological target: T2, μ-opioid receptor (MOR); assay: [35S]GTPγS binding in Sprague-Dawley / Fischer 344 rat thalamic membranes (Janowsky lab); assay type: biochemical; parameters: from tissue; host or cells: rat thalamus membranes (Sprague-Dawley; also Fischer F344 in the Janowsky lab)
μ-opioid receptor (MOR) [5] = biological target: T2, μ-opioid receptor (MOR); parameters: method as in PMID 9592058; conditions: rat thalamic membranes, cited from earlier work
α2 receptor = conditions: cited from earlier work
[6] = biological target: rat µ-opioid receptor (rMOR), recombinant (rat) (UniProt P33535)
rat µ-opioid receptor (rMOR), recombinant (rat), sequence (P33535 whole entry): as above

[7] = biological target: µ-opioid receptor (MOR) of rat brain (rat (endogenous in rat thalamus and brain sections)) (UniProt P33535)
µ-opioid receptor (MOR) of rat brain (rat (endogenous in rat thalamus and brain sections)), sequence (P33535 whole entry): as above

[8] = biological target: mouse µ-opioid receptor (mMOR) (mouse) (UniProt P42866)
mouse µ-opioid receptor (mMOR) (mouse), sequence (P42866 whole entry): as the sequence (P42866 whole entry) above

[9] = biological target: µ-opioid receptor (MOR) of rat brain (rat (endogenous in rat thalamus and brain sections)) (UniProt P33535); remark: listed apart in the source
rat rMOR = biological target: T3, rat rMOR (Rattus norvegicus, UniProt P33535); assay: [35S]GTPγS binding in rMOR-expressing CHO cells (Janowsky lab); assay type: biochemical; conditions: read-out: Agonist activity Emax (%)
T3 construct: expressed in transfected cells
T3 sequence (P33535 whole entry): as the sequence (P33535 whole entry) above

μ-opioid receptor (MOR) [10] = biological target: T2, μ-opioid receptor (MOR); assay: [35S]GTPγS binding in Sprague-Dawley rat thalamic membranes (Childers lab); assay type: biochemical; parameters: from tissue; host or cells: rat thalamus membranes (Sprague-Dawley; also Fischer F344 in the Janowsky lab)
human hMOR = biological target: T4, human hMOR (Homo sapiens, UniProt P35372); assay: [35S]GTPγS binding in hMOR-expressing CHO cells (Rothman lab); assay type: biochemical
T4 construct: expressed in transfected cells
T4 sequence (P35372 whole entry): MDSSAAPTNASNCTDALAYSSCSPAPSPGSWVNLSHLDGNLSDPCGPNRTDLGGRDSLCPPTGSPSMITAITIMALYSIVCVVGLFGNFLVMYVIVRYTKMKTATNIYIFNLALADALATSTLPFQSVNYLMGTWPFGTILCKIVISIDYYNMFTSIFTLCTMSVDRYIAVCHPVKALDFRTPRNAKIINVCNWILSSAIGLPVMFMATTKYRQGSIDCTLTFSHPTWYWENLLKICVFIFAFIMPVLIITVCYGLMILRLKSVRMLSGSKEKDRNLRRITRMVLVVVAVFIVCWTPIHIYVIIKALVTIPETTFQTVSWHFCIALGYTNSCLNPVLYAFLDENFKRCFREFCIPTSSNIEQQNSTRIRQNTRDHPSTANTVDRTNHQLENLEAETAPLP

[11] = estimated; cited from earlier work
μ-opioid receptor (MOR) [12] = biological target: T2, μ-opioid receptor (MOR); assay: In vitro autoradiography of agonist-stimulated [35S]GTPγS binding in rat brain sections (Childers lab); assay type: biochemical; parameters: from tissue; conditions: noribogaine by itself at concentrations up to 30 µM
[13] = read-out: Agonist activity Emax (%)
[14] = Sprague-Dawley rat thalamic membranes, concentrations up to 100 µM
[15] = concentrations up to 10^-5 M, Janowsky lab procedures or procedures of Pablo and Mash

## COCC[C@H]1CC2CN3CCc4c([nH]c5ccccc45)[C@](C(=O)OC)(C2)[C@H]13 [18-MC, 18-methoxycoronaridine]
Mouse mMOR
  EC50: 3.42 ± 2.2 µM
  Ki: 19.1 ± 2.97 µM
Mouse mMOR; [13]
  Emax: 19 ± 4%
μ-opioid receptor (MOR) [1]
  affinity for the μ-opioid receptor (MOR): low micromolar range
NMDA receptor
  affinity for the NMDA receptor: lacks significant affinity
[2]
  solubility: ≥ 1000 µM
μ-opioid receptor (MOR) [3]
  IC50: 83.3 ± 19.4 µM
  Ki: 13 µM and 13.2 µM
μ-opioid receptor (MOR) [3]; [14]
  stimulation of [35S]GTPγS binding: no significant stimulation; also recorded: no efficacy
μ-opioid receptor (MOR) [4]; [15]
  stimulation of [35S]GTPγS binding: did not stimulate

## Ibogaine HCl
μ-opioid receptor (MOR) [5]; 100 µM ibogaine
  stimulation of [35S]GTPγS binding: ~20%
μ-opioid receptor (MOR) [5]; concentrations of 100 µM to 1 mM
  stimulation of [35S]GTPγS binding: 20-30%
μ-opioid receptor (MOR) [1]
  affinity for the μ-opioid receptor (MOR): low micromolar range
α2 receptor
  affinity for the α2 receptor: no significant affinity
μ-opioid receptor (MOR) [3]
  stimulation of [35S]GTPγS binding: no significant stimulation
μ-opioid receptor (MOR) [4]
  stimulation of [35S]GTPγS binding: did not stimulate

## DAMGO ([D-Ala^2, N-MePhe^4, Gly-ol]-enkephalin) (peptide)
[6]
  EC50 of stimulation of [35S]GTPγS binding, CHO rMOR cell membranes (Janowsky lab): 0.034 µM
[7]
  EC50 of stimulation of [35S]GTPγS binding, Sprague-Dawley and Fischer 344 rat thalamic membranes (Janowsky lab): 0.122 µM
  EC50 of stimulation of [35S]GTPγS binding, Sprague-Dawley rat thalamic membranes (Childers lab): 0.21 µM
  EC50 of stimulation of [35S]GTPγS binding, Sprague-Dawley rat thalamic membranes (Reith lab): 0.238 µM
[8]
  maximal stimulation of [35S]GTPγS binding over basal, HEK 293-mMOR cell membranes (Reith lab): 257 % over basal
[9]
  maximal stimulation of [35S]GTPγS binding over basal, Sprague-Dawley rat thalamic membranes (Reith lab): 214 % over basal

## C[C@@H](NC(=O)[C@@H](N)Cc1ccc(O)cc1)C(=O)NCC(=O)N(C)[C@@H](Cc1ccccc1)C(=O)NCCO [DAMGO, [D-Ala^2, N-MePhe^4, Gly-ol]-enkephalin, reference compound]
Mouse mMOR; read-out: maximal stimulation of [35S]GTPγS binding over basal
  Emax: 257 ± 12%
Rat rMOR
  Emax: 100%
μ-opioid receptor (MOR) [3]; Sprague-Dawley rat thalamic membranes
  maximal level of stimulation of [35S]GTPγS binding over basal: 214 ± 6%
μ-opioid receptor (MOR) [3]; [13]
  Emax: 100%
μ-opioid receptor (MOR) [4]; [13]
  Emax: 100%
μ-opioid receptor (MOR) [10]; [13]
  Emax: 100%

## CC[C@H]1C[C@@H]2C[C@H]3c4[nH]c5ccc(O)cc5c4CCN(C2)[C@@H]13 [Noribogaine, Noribogaine HCl]
Mouse mMOR
  EC50: 7.42 ± 1.3 µM
  Ki: 38.3 ± 1.71 µM
Mouse mMOR; [13]
  Emax: 36 ± 6%
Human hMOR
  Ki: 1.48 ± 0.25 µM
μ-opioid receptor (MOR) [5]
  agonist classification by naloxone-sensitive stimulation of [35S]GTPγS binding: full MOR agonist
μ-opioid receptor (MOR) [5]; read-out: EC50 for stimulating [35S]GTPγS binding
  EC50: 0.324 µM
[11]
  half-life relative to parent compound: considerably longer than that of the parent compound
μ-opioid receptor (MOR) [1]
  affinity for the μ-opioid receptor (MOR): low micromolar range
μ-opioid receptor (MOR) [12]
  effect on [35S]GTPγS binding in any brain region: had no effect
[2]
  solubility: ≥ 1000 µM
μ-opioid receptor (MOR) [3]
  IC50: 84 ± 27.8 µM
  Ki: 13 µM and 13.3 µM
μ-opioid receptor (MOR) [3]; [14]
  stimulation of [35S]GTPγS binding: no significant stimulation; also recorded: no efficacy
μ-opioid receptor (MOR) [4]; [15]
  stimulation of [35S]GTPγS binding: did not stimulate
μ-opioid receptor (MOR) [10]; Sprague-Dawley rat thalamic membranes (Childers lab), noribogaine up to 10 µM
  inhibition of the stimulation evoked by 1 µM DAMGO: did not inhibit
μ-opioid receptor (MOR) [10]; concentrations up to 30 µM
  effect on [35S]GTPγS binding by itself: did not have any effect
